Consider three molecules from ChEMBL document CHEMBL1201862, “PubChem BioAssay data set” (2004).

Assay [1] is described as follows: NIH-3T3 fibroblast cytotoxicity, dose response, cytotoxicity control, cell-based, fluorescence, Alamar Blue, secondary assay (AID 2327).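 Note: NIH-3T3 mouse fibroblasts cultured with fluconazole at 8 µg/mL.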 It counts as functional.
For assay [2], the system named is Streptococcus sp. 'group A'. The assay is described as follows: growth inhibition of control SK(-) GAS strain, dose response, counter-screen for streptokinase expression inhibitor project, luminescence, kanamycin, BacTiterGlo, confirmation (AID 1900). It counts as functional, organism-based. On the technique in general: A counterscreen serves to expose hits that act by an unwanted route or on another target.

Assay [3] in a line: C. albicans growth with fluconazole, confirmation, fluorescence, retest (AID 2467). It counts as functional, cell-based.
For assay [4], the target named is T1, Serine/threonine-protein phosphatase (Candida dubliniensis (strain CD36 / CBS 7987 / NCPF 3949 / NRRLY-17841) (Yeast), UniProt B9W6M3).
T1 sequence (B9W6M3 whole entry): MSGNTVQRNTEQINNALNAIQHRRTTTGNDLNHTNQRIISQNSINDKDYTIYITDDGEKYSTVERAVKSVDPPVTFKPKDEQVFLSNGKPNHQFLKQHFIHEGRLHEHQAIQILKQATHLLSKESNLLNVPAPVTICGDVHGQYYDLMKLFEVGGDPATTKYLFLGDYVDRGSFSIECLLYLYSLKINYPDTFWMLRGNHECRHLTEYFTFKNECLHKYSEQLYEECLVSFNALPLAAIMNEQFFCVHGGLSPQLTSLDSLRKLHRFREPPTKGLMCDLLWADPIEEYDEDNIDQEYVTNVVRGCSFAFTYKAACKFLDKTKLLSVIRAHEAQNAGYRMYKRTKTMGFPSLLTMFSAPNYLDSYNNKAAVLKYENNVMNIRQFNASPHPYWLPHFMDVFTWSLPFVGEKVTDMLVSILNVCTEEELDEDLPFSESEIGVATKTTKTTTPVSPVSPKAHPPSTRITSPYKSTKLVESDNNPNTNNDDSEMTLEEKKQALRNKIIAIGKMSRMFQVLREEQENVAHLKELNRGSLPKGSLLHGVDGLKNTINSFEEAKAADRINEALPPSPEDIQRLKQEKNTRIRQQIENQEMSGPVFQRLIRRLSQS
The assay is described as follows: calcineurin pathway inhibitors in yeast reporter, dose response, S. cerevisiae, CDRE-lacZ, luminescence, secondary (AID 2388).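 Note: yeast reporter cells carrying a calcineurin-responsive lacZ construct stimulated with calcium chloride; luminescent beta-galactosidase reporter signal in whole cells rather than isolated phosphatase activity; potency for inhibition where a drop in reporter signal means calcineurin blockade.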 It counts as functional, cell-based.

The test system of the next assay is Streptococcus. The assay is described as follows: Group A Streptococcus viability loss, dose response, counter-screen for streptokinase expression inhibitor project, luminescence, BacTiterGlo (AID 1915).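 Note: potency for reduction of bacterial viability or growth.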 It counts as functional, organism-based.
Assay [5] has as its target Voltage-dependent T-type calcium channel subunit alpha-1H (Homo sapiens, UniProt O95180). It counts as functional.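 Note: channel activity triggered by adding a high calcium stimulation buffer.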
Assay [6] addresses ATP-dependent molecular chaperone HSP82 (Candida albicans (strain WO-1) (Yeast), UniProt C4YTQ8). The assay is described as follows: loss of DOC-induced GRE-beta-galactosidase reporter signal, dose response, Hsp90 inhibitor project, S. cerevisiae, luminescence (AID 2400).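 Note: beta-galactosidase luminescence from glucocorticoid response element reporter as proxy for Hsp90 function; inhibitor potency where signal loss means Hsp90 inhibition.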 It counts as functional, cell-based.
The nature of assay [7]: cells. It counts as functional, cell-based.
A short description of assay [8]: inhibitors of intracellular T. cruzi replication, confirmation, NIH3T3 host cells, beta-gal luminescence (AID 2044).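 Note: intracellular parasites grown in NIH/3T3 mouse fibroblasts as host cells; luminescent beta-galactosidase reporter signal from transgenic T. cruzi replicating inside host cells; inhibitors lower the luminescence signal.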 It counts as functional, cell-based.
Assay [9] can be described thus: cells. It counts as functional, cell-based. This is another data set of the same source.
The nature of assay [10]: cytotoxicity toward NIH3T3 fibroblasts, dose response, counter-screen, cell-based, ATP luminescence, mouse fibroblasts (AID 2010).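 Note: cells exposed to compound for about 90 hours before reading.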 It counts as functional.
The nature of assay [11]: cytotoxicity in HEK-293T cells, dose response, cytotoxicity control for TCR NF-kB inhibitor project, luminescence, T-cell screen hits (AID 489026).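 Note: cells exposed to compound about 14 hours before the viability readout.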 It counts as functional, cell-based.
Assay [12] has as its target Heat shock protein HSP 90-alpha (Homo sapiens, UniProt P07900). It counts as functional, organism-based.
In assay [13] the target is T2, Heat shock factor protein 1 (Mus musculus, UniProt P38532).
T2 sequence (P38532 whole entry): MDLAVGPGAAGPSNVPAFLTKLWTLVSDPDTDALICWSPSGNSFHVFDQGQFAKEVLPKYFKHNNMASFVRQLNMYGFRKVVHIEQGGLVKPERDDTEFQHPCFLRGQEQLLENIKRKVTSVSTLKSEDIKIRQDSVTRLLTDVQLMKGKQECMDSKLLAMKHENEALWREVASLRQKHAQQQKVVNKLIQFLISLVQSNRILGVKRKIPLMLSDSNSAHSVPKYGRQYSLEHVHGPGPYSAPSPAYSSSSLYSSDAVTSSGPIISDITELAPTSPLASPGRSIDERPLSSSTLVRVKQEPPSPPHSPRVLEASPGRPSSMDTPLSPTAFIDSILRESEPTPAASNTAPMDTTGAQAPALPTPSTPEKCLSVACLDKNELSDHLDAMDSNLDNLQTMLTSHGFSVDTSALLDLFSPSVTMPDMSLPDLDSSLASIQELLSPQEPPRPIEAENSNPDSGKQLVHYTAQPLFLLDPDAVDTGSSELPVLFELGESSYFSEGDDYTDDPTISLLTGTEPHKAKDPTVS
The assay is described as follows: inhibition of MG132-induced HSE-luciferase signal, confirmation, cell-based, NIH3T3, luminescence, dose retest (AID 2382).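 Note: NIH3T3 fibroblasts with HSF1-driven luciferase reporter stressed by proteasome inhibitor MG132; luminescence from HSF1-driven luciferase expression after 8 hours of MG132 stress.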 It counts as functional.

The next assay addresses Nonstructural protein 1 (Influenza A virus, UniProt Q194T2). It counts as functional, Influenza A virus (A/California/07/2009(H1N1)).
Assay [14] concerns the target T3, Microphthalmia-associated transcription factor (Homo sapiens, UniProt O75030).
T3 sequence (O75030 whole entry): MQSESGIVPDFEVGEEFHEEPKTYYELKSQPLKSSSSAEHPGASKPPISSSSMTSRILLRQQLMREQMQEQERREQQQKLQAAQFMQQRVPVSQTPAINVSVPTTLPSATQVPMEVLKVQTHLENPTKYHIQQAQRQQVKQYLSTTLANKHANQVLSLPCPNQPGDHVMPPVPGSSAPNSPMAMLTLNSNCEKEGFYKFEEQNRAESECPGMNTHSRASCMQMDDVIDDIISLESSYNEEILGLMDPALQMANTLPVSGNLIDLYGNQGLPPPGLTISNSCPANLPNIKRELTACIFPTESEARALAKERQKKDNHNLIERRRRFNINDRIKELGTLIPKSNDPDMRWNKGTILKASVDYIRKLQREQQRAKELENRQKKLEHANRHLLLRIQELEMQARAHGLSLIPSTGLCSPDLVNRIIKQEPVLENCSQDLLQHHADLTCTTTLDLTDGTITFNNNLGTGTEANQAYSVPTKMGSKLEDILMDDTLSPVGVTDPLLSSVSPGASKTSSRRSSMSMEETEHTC
The assay is described as follows: TRPM1 promoter luciferase signal decrease, dose response, MITF inhibitor project, cell-based, SK-MEL-5, cherry-picked, set 3 (AID 493073).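 Note: SK-MEL-5 melanoma cells with luciferase driven by the MITF target TRPM1 promoter.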 It counts as functional.

The next assay deals with A-375. The assay is described as follows: MITF: Counter assay: A375 proliferation Measured in Cell-Based System Using Plate Reader - 2084-03_Inhibitor_Dose_DryPowder_Activity. [Related pubchem assays (depositor defined):AID488944]. It counts as functional. Particulars: Homo sapiens.
The subject of a further assay is INS1. The assay is described as follows: beta cell apoptosis inhibitors, cytokine rescue, dose response, luminescence, retest (AID 449756).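 Note: cell death triggered by IL-1 beta plus TNF-alpha plus IFN-gamma mixture; protective hits raise ATP signal compared with cytokine alone wells.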 It counts as functional, cell-based. Particulars: Rattus norvegicus.
A short description of assay [15]: Shn3 3'UTR reporter inhibitors, dose response, cell-based, Clone20 osteoblasts, firefly luciferase, cherry-picked (AID 624132).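 Note: firefly luciferase luminescence from reporter carrying the Shn3 3'UTR in osteoblasts.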 It counts as functional.
The nature of assay [16]: HepG2 cell cytotoxicity, dose response, cytotoxicity control for Shn3 inhibitor project, CellTiter-Glo, cherry-picked (AID 624134). It counts as functional, cell-based. A general note: ATP-based viability assays read luminescence as a measure of living cells.
Assay [17] in a line: control 3'UTR Renilla luciferase suppression, dose response, counter-screen for Shn3 inhibitor project, cell-based, Clone20-Shn3RL, cherry-picked (AID 624133). It counts as functional.
Assay [18] addresses Photoreceptor-specific nuclear receptor (Homo sapiens, UniProt Q9Y5X4). It counts as functional, cell-based.

Calls of active or inactive are those of the source. Bounds are passed on as bounds.

ATP-dependent molecular chaperone HSP82, sequence (C4YTQ8 whole entry): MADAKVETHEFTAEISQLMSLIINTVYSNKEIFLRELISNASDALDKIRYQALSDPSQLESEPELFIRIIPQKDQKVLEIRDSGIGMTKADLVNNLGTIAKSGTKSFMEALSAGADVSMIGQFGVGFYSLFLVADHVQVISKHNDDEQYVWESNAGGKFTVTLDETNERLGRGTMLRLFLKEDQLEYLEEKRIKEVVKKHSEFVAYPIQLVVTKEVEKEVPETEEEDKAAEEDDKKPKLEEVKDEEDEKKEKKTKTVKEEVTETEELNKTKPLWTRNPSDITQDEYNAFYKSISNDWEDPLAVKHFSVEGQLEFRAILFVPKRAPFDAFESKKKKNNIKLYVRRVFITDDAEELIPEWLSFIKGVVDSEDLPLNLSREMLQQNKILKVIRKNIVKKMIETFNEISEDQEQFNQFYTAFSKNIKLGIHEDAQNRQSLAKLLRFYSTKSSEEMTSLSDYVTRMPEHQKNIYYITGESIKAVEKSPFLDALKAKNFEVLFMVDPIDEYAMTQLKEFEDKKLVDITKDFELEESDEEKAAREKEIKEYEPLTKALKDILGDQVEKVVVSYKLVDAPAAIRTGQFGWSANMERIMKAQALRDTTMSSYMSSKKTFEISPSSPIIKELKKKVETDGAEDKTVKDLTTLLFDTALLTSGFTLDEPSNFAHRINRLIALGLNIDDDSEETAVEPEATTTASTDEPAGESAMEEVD
Voltage-dependent T-type calcium channel subunit alpha-1H, sequence (O95180 whole entry): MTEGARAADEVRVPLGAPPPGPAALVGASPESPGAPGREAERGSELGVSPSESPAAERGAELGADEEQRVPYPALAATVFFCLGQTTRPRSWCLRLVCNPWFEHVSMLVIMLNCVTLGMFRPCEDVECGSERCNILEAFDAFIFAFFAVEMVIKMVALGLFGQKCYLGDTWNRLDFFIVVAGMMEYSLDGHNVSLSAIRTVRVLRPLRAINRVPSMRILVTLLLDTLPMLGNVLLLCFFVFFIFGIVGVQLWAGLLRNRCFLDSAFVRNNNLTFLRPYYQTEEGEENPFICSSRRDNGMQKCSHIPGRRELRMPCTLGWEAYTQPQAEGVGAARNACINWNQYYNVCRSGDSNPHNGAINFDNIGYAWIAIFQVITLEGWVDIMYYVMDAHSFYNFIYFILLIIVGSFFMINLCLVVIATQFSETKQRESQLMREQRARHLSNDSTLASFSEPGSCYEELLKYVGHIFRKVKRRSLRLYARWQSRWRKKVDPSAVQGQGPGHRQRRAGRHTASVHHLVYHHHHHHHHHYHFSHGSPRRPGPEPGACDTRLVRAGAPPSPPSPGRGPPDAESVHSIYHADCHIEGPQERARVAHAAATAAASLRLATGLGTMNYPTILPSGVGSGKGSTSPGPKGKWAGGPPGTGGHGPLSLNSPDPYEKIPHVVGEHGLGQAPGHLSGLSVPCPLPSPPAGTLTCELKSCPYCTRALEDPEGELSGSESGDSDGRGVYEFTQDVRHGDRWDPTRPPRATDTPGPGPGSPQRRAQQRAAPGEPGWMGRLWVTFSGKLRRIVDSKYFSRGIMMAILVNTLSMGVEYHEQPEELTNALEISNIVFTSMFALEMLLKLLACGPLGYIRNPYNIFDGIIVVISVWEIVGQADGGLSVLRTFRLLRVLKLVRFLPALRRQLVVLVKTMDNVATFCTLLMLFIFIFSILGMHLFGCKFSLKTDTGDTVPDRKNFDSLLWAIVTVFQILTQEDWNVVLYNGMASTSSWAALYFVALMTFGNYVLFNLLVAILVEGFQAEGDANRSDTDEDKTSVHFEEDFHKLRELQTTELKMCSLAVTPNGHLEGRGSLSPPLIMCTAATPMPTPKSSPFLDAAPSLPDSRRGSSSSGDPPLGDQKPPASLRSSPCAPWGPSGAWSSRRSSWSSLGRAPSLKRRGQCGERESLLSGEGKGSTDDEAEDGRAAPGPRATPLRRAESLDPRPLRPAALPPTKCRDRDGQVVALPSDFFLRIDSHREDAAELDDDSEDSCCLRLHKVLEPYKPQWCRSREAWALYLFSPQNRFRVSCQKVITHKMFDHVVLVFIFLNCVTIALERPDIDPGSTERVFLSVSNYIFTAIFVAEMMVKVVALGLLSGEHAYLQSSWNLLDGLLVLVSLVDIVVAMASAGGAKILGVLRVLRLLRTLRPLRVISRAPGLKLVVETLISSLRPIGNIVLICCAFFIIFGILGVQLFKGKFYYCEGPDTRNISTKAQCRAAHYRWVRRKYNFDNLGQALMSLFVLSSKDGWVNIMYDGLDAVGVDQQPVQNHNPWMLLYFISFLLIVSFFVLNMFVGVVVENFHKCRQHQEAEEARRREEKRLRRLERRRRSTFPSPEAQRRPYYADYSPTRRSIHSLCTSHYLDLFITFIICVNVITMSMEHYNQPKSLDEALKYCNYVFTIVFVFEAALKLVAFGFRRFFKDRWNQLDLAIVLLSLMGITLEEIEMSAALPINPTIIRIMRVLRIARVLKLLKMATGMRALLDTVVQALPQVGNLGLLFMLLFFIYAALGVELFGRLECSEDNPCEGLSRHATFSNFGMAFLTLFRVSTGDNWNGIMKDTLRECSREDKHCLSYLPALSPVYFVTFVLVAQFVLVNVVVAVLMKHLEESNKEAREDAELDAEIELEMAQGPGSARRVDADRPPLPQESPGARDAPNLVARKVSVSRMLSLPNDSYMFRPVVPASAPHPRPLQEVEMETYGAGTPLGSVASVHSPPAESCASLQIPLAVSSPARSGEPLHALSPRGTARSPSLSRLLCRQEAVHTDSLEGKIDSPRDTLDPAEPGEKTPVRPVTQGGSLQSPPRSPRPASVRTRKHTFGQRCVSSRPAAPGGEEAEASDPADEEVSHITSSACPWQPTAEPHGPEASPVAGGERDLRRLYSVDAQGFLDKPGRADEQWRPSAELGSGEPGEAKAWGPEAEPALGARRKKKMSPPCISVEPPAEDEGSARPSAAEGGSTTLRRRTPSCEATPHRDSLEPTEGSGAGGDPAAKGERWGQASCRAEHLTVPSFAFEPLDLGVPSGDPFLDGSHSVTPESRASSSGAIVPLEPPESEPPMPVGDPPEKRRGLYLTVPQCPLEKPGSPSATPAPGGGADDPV
Nonstructural protein 1, sequence (Q194T2 whole entry): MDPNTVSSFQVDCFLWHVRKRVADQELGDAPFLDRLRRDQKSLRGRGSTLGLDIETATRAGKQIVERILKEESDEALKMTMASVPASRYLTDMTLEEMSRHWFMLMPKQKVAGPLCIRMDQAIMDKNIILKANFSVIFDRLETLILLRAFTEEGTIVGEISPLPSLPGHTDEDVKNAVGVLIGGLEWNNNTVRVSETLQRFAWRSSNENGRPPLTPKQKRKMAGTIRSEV
Photoreceptor-specific nuclear receptor, sequence (Q9Y5X4 whole entry): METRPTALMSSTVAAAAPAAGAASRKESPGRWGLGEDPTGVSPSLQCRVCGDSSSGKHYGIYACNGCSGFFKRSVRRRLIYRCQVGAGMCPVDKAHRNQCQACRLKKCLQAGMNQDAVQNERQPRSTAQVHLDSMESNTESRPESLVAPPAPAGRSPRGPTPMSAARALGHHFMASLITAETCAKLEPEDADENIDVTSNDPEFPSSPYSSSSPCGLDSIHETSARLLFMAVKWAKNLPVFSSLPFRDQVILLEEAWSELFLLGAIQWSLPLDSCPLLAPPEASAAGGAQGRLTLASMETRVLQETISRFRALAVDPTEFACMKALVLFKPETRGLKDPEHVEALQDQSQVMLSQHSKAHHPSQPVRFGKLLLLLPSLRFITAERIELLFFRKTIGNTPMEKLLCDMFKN

Broadly, the EC50 is the concentration that produces a half-maximal response. With `COc1ccc(-c2nnc(NC(=O)c3cc(Cl)ccc3Cl)o2)cc1`, the EC50 in [1] is > 150 µM (inactive); in [2], 2.64 µM (active); in assay [3], 0.815 µM (active); in assay [4], > 180 µM (inactive); with Streptococcus, 7.89 µM (active); in [5], 10.8 µM (active). Also, the EC50 in [6] is 18 µM (active).
By IC50 is commonly meant the point on the concentration scale where inhibition reaches its midpoint. For orientation: AC50 means the concentration giving half of the maximal activity seen. In the case of `O=C(N/N=C/c1c(O)ccc2ccccc12)c1cccc(C(F)(F)F)c1`, the EC50 was 26.9 µM (active) in assay [1]; 8.23 µM (active) in “cells [7]”; 0.452 µM (active) in assay [3]; 0.686 µM (active) in assay [8]; > 350 µM (not active) in the assay “cells [9]”; > 180 µM (inactive) in [4]. Besides, the EC50 in assay [10] is 6.11 µM (active); in [6], 9.34 µM (active). For the same molecule, the IC50 in assay [11] is > 80 µM (inactive). Further, in assay [12], the AC50 is 2.24 µM (active).
With `O=[N+]([O-])c1cc(CN2CCN(c3ccccc3)CC2)c(O)c2ncccc12`, the EC50 was 23 µM (inconclusive) in assay [1]; > 195 µM (not active) in [13]; 0.201 µM (active) in assay [3]; 0.295 µM (active) in [8]; > 180 µM (inactive) in assay [4]; 0.809 µM (active) in assay [10]. Besides, in assay [6], the EC50 is 18 µM (active). Moreover, the IC50 is 3.42 µM (active) at Nonstructural protein 1 and 13.9 µM (inactive) in [18]. The AC50 in assay [14] is 8.3 µM (active); in the assay on A-375 it was 49.4 µM (active); in the assay on INS1, 1.17 µM (active); in assay [15], 1.99 µM (active); in assay [16], 3.74 µM (active); in assay [17], 2.28 µM (active).
